Consider one molecule from PMC7601231 (Polymers, 2020).

A short description of data set [1]: Biodistribution study in rats. The format is in vivo. The note with it: 10 mg/kg, 10, 60 and 360 min after administration.
The nature of data set [2]: Pharmacokinetic study in rats after injection. It is filed as in vivo, Sprague–Dawley rats. The note with it: 10 mg/kg, n = 12. As to the method: Blood samples (0.5 mL) were taken from the retinal vein of the rats using a capillary and at the following time points after injecting: 5, 10, 15, 30 min, 1, 2, 4, 6, 8, 10 and 12 h. The sample should be transferred to the heparin sodium tube for anticoagulation. The samples were centrifuged at 4000 rpm for 10 min. The resultant plasma was poured into 2-mL cryogenic plastic tubes and stored in a freezer (at […]) until assayed. A week later, the two groups of animals exchanged the drug and obtained plasma samples, which were stored in the −20-degree refrigerator for analysis. The sample was extracted in the following steps: the plasma ([…]) was mixed with […] of paclitaxel solution (4.0 mg/mL) as […], and 1.0 mL methyl tert-butyl ether in a 2-mL plastic centrifuge tube, centrifuged at 10,000 rpm for 5 min to precipitate the proteins and the supernatant layer (0.8 mL) was blown dry by N2 and is dissolved by 0.1 mL methanol, which was centrifuged at 10,000 rpm for 10 min. The supernatant layer ([…]) was analyzed by LC-MS (Waters, American).
The plasma concentration versus time curves of the two preparations were plotted. The pharmacokinetic parameters such as elimination rate (Ke) and elimination half-life (T1/2) were calculated by using DAS2.0 software. The maximum peak concentration (Cmax) and the corresponding sampling time (Tmax) were obtained from the curves directly. The areas under the plasma concentration–time curve from time zero to time t (AUC0–t) and from time zero to infinity (AUC0-∞) were calculated by the method of moments. Statistical comparisons were made by using a ANOVA test and p value smaller than 0.05 was considered statistically significant.

The nature of data set [3]: Vascular stimulation test, ear vein injection. It is filed as in vivo, New Zealand white rabbits. Particulars: rabbit ear vein, 0.7 mg/kg, every day, three injections. The procedure:
Preparations were administered every day for a total of three injections. At designed time points, rabbits were anesthetized and ear tissue was soaked with 10% formalin. Then the histopathologic examination was conducted.

Data set [4] is described as follows: Phase-solubility studies of DTX in SBE-β-CD aqueous solution. It is filed as physicochemical. The note with it: 25 °C. The procedure:
In this study, the stability constant was assessed by classic determination method using solubility diagrams that required calculations involving drug solubility. […] Then the resulting suspensions were shaken in a thermostatic air-bath shaker at 25 °C for 48 h until equilibrium was achieved. After that, the saturated supernatant fluid was centrifuged for 5 min under 5000 rpm, and then the top fluid was withdrawn and filtered through a 0.45-μm filter. The filtrate was diluted appropriately with deionized water and analyzed by HPLC as reported above.

Usually Cmax stands for the maximum level reached in the sampled fluid or tissue.

As for `CC(=O)O[C@@]12CO[C@@H]1C[C@H](O)[C@@]1(C)C(=O)[C@H](O)C3=C(C)[C@@H](OC(=O)[C@H](O)[C@@H](NC(=O)OC(C)(C)C)c4ccccc4)C[C@@](O)([C@@H](OC(=O)c4ccccc4)[C@H]21)C3(C)C` [DTX, Docetaxel], in data set [1], the “concentration of DTX in brain, fat and testis” value is reported as “low”. In data set [2], the “AUC(0-t)” value was determined as 881.4 ± 30.4 ng/mL ∗ h and the “AUC(0-∞)” value turned out to be 925.8 ± 35.2 ng/mL ∗ h. The same molecule had a Cmax in data set [2] (male, Sprague-Dawley, rat, plasma, other: injection) of 1100 ± 98 ng/mL. In data set [3], the “vascular stimulation: reaction at the injection site (histopathology)” value was “serious vascular inflammation and surrounding tissue lesions”. Moreover, in data set [4], the “increase of water solubility of DTX over its original values” is “about 800 times”.
